Where two headings read alike, the source gives them in different places.
What was measured:
[1] = system: Bacillus subtilis wild strain NCIB3610; experiment: Pellicle (biofilm) formation in LBGM broth; format: cell-based; conditions: for biofilm formation by B. subtilis: NaCl or CaCl2 added to LBGM, results not shown; for pellicle formation by B. subtilis: LBGM medium, 30° C., 24 h
Experimental: Plates were incubated at 30° C. for 24 h.

tapA operon [2] = experiment: β-Galactosidase transcriptional fusion, matrix gene expression (tapA); format: cell-based, Bacillus subtilis; conditions: for expression of the tapA operon: similar concentrations of NaCl or CaCl2
Excerpt: (§1) To analyze the effect of magnesium ions on matrix gene expression a transcriptional fusions of the promoters for eps and tapA to the gene encoding β galactosidase were used. Samples of generated pellicles as described above were collected and resuspended in phosphate-buffered saline (PBS) buffer. Typical long bundled chains of cells in the biofilm colony were disrupted using mild sonication as described previously. Optical density of the cell samples was normalized using OD600. One milliliter of cell suspensions was collected and assayed for (3-Galactosidase activity as described previously.
(§2) The effect of Mg^2+ ions on matrix gene expression was examined by using transcriptional fusions of the promoters for epsA-O and tapA to the gene encoding β galactosidase.

epsA-O operon = experiment: β-Galactosidase transcriptional fusion, matrix gene expression (eps); format: cell-based, Bacillus subtilis; conditions: for expression of the eps operon: similar concentrations of NaCl or CaCl2
Excerpt: as §1, §2

B. subtilis NCIB3610 = conditions: LBGM, tested concentrations (5-100 mM MgCl2)
Experimental: Initially, the cells were grown in shaking cultures over night at 23° C./150 rpm in LB to around 2×10^9 CFU per ml. […] The absorbance of the cultures at 600 nm was measured periodically for each culture for 9 hours. Each condition had 3 replicates, and the growth curve experiments were repeated twice.

[3] = system: Bacillus subtilis NCIB 3610
Experimental: Additional experiments were conducted in order to evaluate the effect of magnesium ions on colony type biofilm formation by Bacillus subtilis on a solid surface. First a starter culture was prepared by growing bacteria from the strain Bacillus subtilis NCIB 3610 in an LB (Lysogeny broth) medium at 37° C., 150 rpm for 5 hours. […] Following these steps, 3 μl of the starter culture were spotted onto each of the solid biofilm promoting mediums. The samples were incubated at 30° C. for 72 hours prior to analysis. Images were taken using a Zeiss Stemi 2000-C microscope with an axiocam ERc 5s camera.

[4] = 50 mM or 100 mM MgCl2; B. subtilis culture, 5 hours, 37° C.
Experimental: Cultures were incubated for 5 hours at 37° C. and 50 rpm and pH was measured every hour using pH strips.

[5] = system: Bacillus subtilis wild strain NCIB3610; conditions: high concentrations of Mg ions; solid LBGM, 30° C., 72 h
Experimental: For routine growth, all strains were propagated in Lysogeny broth (LB; 10 g of tryptone, 5 g of yeast extract and 5 g of NaCl per liter) or on solid LB medium supplemented with 1.5% agar. For biofilm generation, bacteria were grown to stationary phase in LB medium at 37° C. in shaking culture to around 1×10^8 CFU per ml. Biofilms were generated at 30° C. in the biofilm promoting medium LBGM (LB+1% (v/v) glycerol+0.1 mM MnSO4). […] For colony type biofilm formation, 3 μl of the cells (around 3×10^5 CFU) was spotted onto LBGM medium solidified with 1.5% agar as described previously. Plates were incubated at 30° C. for 72 h prior to analysis. For pellicle formation, 5 μl of the cells (around 5×10^5 CFU) was mixed within 4 ml of LBGM broth in 12-well plates (Costar). Plates were incubated at 30° C. for 24 h. Images were taken using a Zeiss Stemi 2000-C microscope with an axiocam ERc 5s camera.

tapA operon [6] = conditions: increase of 1, 3 or 5 mM; particularly 5 mM MgCl2
Experimental: The effect of increase in concentration of Mg′ within milk on the expression of tapA operon, which is one of the major operon for matrix production, was examined. For this purpose, B. subtilis were grown within cow's milk and cow's milk with an increase of 1 mM, 3 mM or 5 mM in concentration of magnesium ions. Further, transcriptional fusions of tapA promoter to the gene encoding cyan fluorescent protein (CFP) were utilized.

B. subtilis [7] = system: B. subtilis
Experimental: The effect of magnesium ions on biofilm formation within cow's milk was examined. A skilled artisan will appreciate that magnesium concentration within cow's milk typically ranges between 4-6 mM.

[8] = system: B. subtilis cells (YC161 with Pspank-gfp); conditions: 25 mM MgCl2 and higher; 24 h in LBGM
Experimental: For fluorescent microscopy, the strain YC161 that produced GFP constitutively, was used. The strain was first grown in shaking culture for 5 h 37° C./150 rpm in LB to around 1×10^8 CFU per ml. Next, 5 μl (around 5×10^5 CFU) of suspension from the generated culture was introduced into 4 ml of LBGM medium and incubated at 30° C. for 24 h statically. Afterwards, one milliliter of suspension from each sample was collected, mildly sonicated (10 sec/20% Amp/5) and centrifuged at 5000 rpm for 2 min. Next, the supernatant was removed and the pellet was re-suspended by pipetting. For microscopic observation, 34, from the samples were transferred onto a glass slide and visualized in a transmitted light microscope using Nomarski differential interference contrast (DIC), at ×40 magnification. A confocal laser scanning microscope was used to visualize GFP expression of strain YC161 using an Olympus IX81 confocal laser scanning microscope (Japan) equipped with 488 nm argon-ion and 543 nm helium neon lasers.
Next, the effect of magnesium ions was visualized microscopically by testing bundling phenotype of fluorescently tagged B. subtilis cells (YC161 with Pspank-gfp), that produce GFP constitutively.

[9] = Experimental: In order to examine milk clotting parameters, milk samples obtained from the dairy farm of the Agricultural Research Organization (ARO; Bet Dagan, Israel). […] Milk-clotting parameters such as rennet clotting time (RCT; min) and curd firmness (CF; V) after 90 min (CF-90) which are measured with an Optigraph instrument (Ysebaert, Frepillon, France) as described by Leitner et al. (2011). Results are presented in a graph. The point in which the curve is split into two curves, represents the rennet Clotting Time (RCT), which is the time between the addition of the clotting enzyme and the beginning of the coagulation process. The curd firmness is derived from the distance of the two curves in the graph 30 min after the addition of the clotting enzyme, or 90 minutes after the addition of the clotting enzyme.
B. subtilis [10] = conditions: at 50 mM and higher (50 and 80 mM tested)
Excerpt: Further, the effect of magnesium ions on biofilm formation by B. subtilis within orange juice enriched medium, was examined.

B. subtilis [11] = conditions: milk supplemented with additional 3 mM or 5 mM MgCl2
Excerpt: The effect of increase in the concentration of magnesium ions was examined. […] The survival rate of bacteria following pasteurization was examined.

[12] = elevated concentrations of Mg2+ ions, pellicles in LBGM

Structure (SMILES): [Ca+2].[Cl-].[Cl-] [CaCl2]
- biofilm formation by B. subtilis [1]: none of those compounds could inhibit the biofilm formation in the same manner as MgCl2
- expression of the tapA operon (tapA operon [2]): not downregulated in a similar manner
- expression of the eps operon (epsA-O operon): not downregulated in a similar manner

Structure (SMILES): O=S(=O)([O-])[O-].[Mg+2] [MgSO4, magnesium sulfate]
- pellicle formation by B. subtilis [1]: inhibited the pellicle formation

Structure (SMILES): [Cl-].[Na+] [NaCl]
- biofilm formation by B. subtilis [1]: none of those compounds could inhibit the biofilm formation in the same manner as MgCl2
- expression of the tapA operon (tapA operon [2]): not downregulated in a similar manner
- expression of the eps operon (epsA-O operon): not downregulated in a similar manner

Structure (SMILES): [Cl-].[Cl-].[Mg+2] [MgCl2, magnesium chloride]
- bacterial growth (B. subtilis NCIB3610): did not affect bacterial growth
- biofilm formation by B. subtilis on solid surface ([3]; magnesium ions 20 mM or 50 mM spread onto a solid surface): reduced biofilm formation
- biofilm formation onto pre-treated surface, stronger effect ([3]; solution of 20 mM MgCl2 as printed (second sentence)): inhibitory effect is more significant
- biofilm formation by B. subtilis onto pre-treated surface ([3]; surface spread with solution of 20 mM MgCl2, 30° C., 72 h): inhibitory effect on biofilm formation
- pellicle formation by B. subtilis [1]: inhibited notably pellicle formation by B. subtilis in a concentration dependent manner
- pH of the milk [4]: does not affect the pH of the milk
- decrease in tapA expression (tapA operon [2]; [12]): ~14.5 fold
- colony type biofilm formation [5]: inhibited significantly
- expression of the tapA operon within milk (tapA operon [6]): reduced drastically
- biofilm bundles within milk (B. subtilis [7]; 5 mM increase of MgCl2 concentration): biofilm bundles are almost totally diminished
- biofilm formation by B. subtilis within milk (B. subtilis [7]; cow's milk, magnesium increase of 1, 3 or 5 mM): inhibit biofilm formation by B. subtilis within milk
- bacterial growth within milk (B. subtilis [7]; increased Mg ions concentration within milk): not significantly affected
- biofilm formation by B. subtilis within milk (B. subtilis [7]; magnesium concentration increased by 1 mM): inhibitory effect of Mg2+ ions is notable
- bundling ability of B. subtilis cells [8]: significant reduction in bundling ability
- decrease in RCT ([9]; addition of 1 mM MgCl2): about 32%
- increase in curd firmness ([9]; addition of 1 mM MgCl2): about 37%
- decrease in RCT ([9]; addition of 3 mM MgCl2): ~51%
- increase in curd firmness ([9]; addition of 3 mM MgCl2): ~54%
- decrease in RCT ([9]; addition of 5 mM MgCl2): ~62%
- increase in curd firmness ([9]; addition of 5 mM MgCl2): ~69%
- decrease in RCT ([9]; addition of 7 mM MgCl2): ~70%
- increase in curd firmness ([9]; addition of 7 mM MgCl2): ~82%
- decrease in RCT ([9]; addition of 10 mM MgCl2): ~84%
- increase in curd firmness ([9]; addition of 10 mM MgCl2): ~84%
- decrease in RCT ([9]; addition of 15 mM MgCl2): ~73%
- increase in curd firmness ([9]; addition of 15 mM MgCl2): ~90%
- decrease in RCT ([9]; addition of 20 mM MgCl2): ~74%
- increase in curd firmness ([9]; addition of 20 mM MgCl2): ~72%
- reduction in eps expression (epsA-O operon; [12]): around 4 fold
- colony type biofilm formation within orange juice enriched medium (B. subtilis [10]): inhibits colony type biofilm formation
- susceptibility of bacteria to heat pasteurization (B. subtilis [11]): increase the susceptibility of bacteria to heat pasteurization
